Experimental data from ChEMBL document CHEMBL1148849, “Synthesis and structure evaluation of a novel cantharimide and its cytotoxicity on SK-Hep-1 hepatoma cells” (2007).
Calls of active or inactive are those of the source. No cut-off for these calls is given here.

How the values were obtained:
SK-HEP1 [1] = test: Cytotoxicity against human SK-HEP-1 cells assessed as 50 percent MTS reduction after 48 hrs; assay type: functional
SK-HEP1 [2] = test: Effect on apoptosis in human SK-HEP-1 cells assessed as increase in caspase 3 activation at 25 ug/mL after 48 hrs; assay type: functional, cell-based
SK-HEP1 [3] = test: Effect on apoptosis in human SK-HEP-1 cells at 25 ug/mL after 48 hrs by TUNEL method; assay type: functional, cell-based
SK-HEP1 [4] = test: Cytotoxicity against human SK-HEP-1 cells assessed as inducing loss of colony formation by MTS assay; assay type: functional, cell-based
SK-HEP1 [5] = test: Cytotoxicity against human SK-HEP-1 cells assessed as inducing cell shrinkage after 48 hrs by MTS assay; assay type: functional, cell-based
LNCaP = test: Apoptotic effect on LNCap cells assessed as induction of shrinkage at 25 ug/mL after 48 hrs; assay type: functional, cell-based; details: Homo sapiens
MCF7 = test: Apoptotic effect on MCF7 cells assessed as induction of shrinkage at 25 ug/mL after 48 hrs; assay type: functional, cell-based; details: Homo sapiens

Row | SMILES | Activity (SK-HEP1 [1]) | Activity (SK-HEP1 [2]) | Activity (SK-HEP1 [3]) | Activity (SK-HEP1 [4]) | Activity (SK-HEP1 [5]) | Activity (LNCaP) | Activity (MCF7)
1 | Cc1ccc2nc(N3C(=O)[C@@]4(C)[C@H]5CC[C@H](O5)[C@@]4(C)C3=O)sc2c1 | 12.5 µg/mL | Active | Active | Active | Active |  | 
2 | COc1ccc2nc(N3C(=O)[C@@]4(C)[C@H]5CC[C@H](O5)[C@@]4(C)C3=O)sc2c1 | 6.25 µg/mL | Active | Active | Active | Active | Active | Active
